Article PMC8149352 (Cancer Chemotherapy and Pharmacology, 2021)

Experiments:
[1] = Part B safety: adverse events (NCI CTCAE v5.0), safety population; assay type: in vivo, human (patients with solid tumors); settings: by treatment period
Procedure: Part B of the core phase assessed the effect of the strong CYP3A inhibitor itraconazole on the PK of pamiparib in patients with solid tumors. All patients received a single dose of oral pamiparib 20 mg on days 1 and 7, and oral itraconazole 200 mg QD on days 3–8. The 20-mg pamiparib dose, the lowest dose strength available and one-sixth of the highest phase 1 dose (120 mg), was deemed sufficient to cover the plasma exposure increase due to complete blockade of CYP3A by itraconazole. Part B patients fasted for at least 8 h before and at least 4 h after pamiparib administration, except for day 7 upon which itraconazole administration occurred ~ 30 min after completing a meal and pamiparib administration followed within 5 min of itraconazole administration. Blood samples for PK analysis were obtained on days 1 and 7 at the same time points listed above for Part A. After completing the core phase in Part A and Part B, patients were offered participation in the extension phase, in which they were to receive pamiparib PO BID in 28-day cycles until disease progression, unacceptable toxicity, withdrawal of consent, or any other reason for discontinuation.
(§1) Adverse events (AEs) were monitored throughout the study and were graded according to the National Cancer Institute Common Terminology Criteria v5.0.
(§2) The safety population included all patients who received at least one dose of pamiparib. […] Plasma PK parameters were calculated from pamiparib concentration–time profiles using standard noncompartmental methods. PK parameters were calculated using Phoenix WinNonlin v6.4 or higher (Certara, Princeton, NJ, USA). […] Data for each treatment part were analyzed separately. Log-transformed AUC and Cmax values were analyzed using a linear mixed-effect model analysis assuming a fixed effect for treatment and a random effect for patients. The study design called for ~ 24 patients (12 in each part) to be enrolled to ensure at least 20 (10 in each part) completed the study. This sample size was based on the precedent set by other PK studies of a similar nature and was not based on power calculations.

[2] = test system: CYP2C8; set-up: method as in PMID 21838784; settings: cited from earlier work
[3] = test system: CYP3A rather than CYP2C8; set-up: method as in PMID 11136296; settings: cited from earlier work
[4] = Part A safety: adverse events (NCI CTCAE v5.0), safety population; assay type: in vivo, human (patients with advanced solid tumors); settings: Part A (N = 12); by treatment period
Procedure: This was an open-label, parallel-group, phase 1 study consisting of a 2-part core phase and an extension phase. Only results for the core phases are reported herein (Supplementary Fig. 1). […] Blood samples for PK analysis were obtained on days 1 and 10 at predose, and at 0.5, 1, 2, 4, 6, 9, 12, 24, and 48 h postdose. Pamiparib plasma concentrations were determined using a validated liquid chromatography–mass spectrometry/mass spectrometry method (lower limit of quantification 1.0 ng/mL) at Covance Laboratory Services (Salt Lake City, Utah).
as §1, §2

[5] = test system: P-glycoprotein; set-up: method as in PMID 32652442; settings: cited from earlier work
[6] = set-up: method as in PMID 27745744; settings: cited from earlier work
[7] = Part B (N = 13; N = 12 for pamiparib with itraconazole)
[8] = olaparib with itraconazole administration

CCC(C)n1ncn(-c2ccc(N3CCN(c4ccc(OCC5COC(Cn6cncn6)(c6ccc(Cl)cc6Cl)O5)cc4)CC3)cc2)c1=O (centres unmarked) [Itraconazole, itraconazole, reference compound]
All TEAEs (any grade), patients [1, 7]: 2 (15.4) n (%) | Any treatment-related TEAE, patients [1, 7]: 1 (7.7) n (%) | Grade >= 3 TEAE, patients [1, 7]: 1 (7.7) n (%) | Serious AE, patients [1, 7]: 1 (7.7) n (%) | Treatment-related TEAE related to itraconazole only, patients [1, 7]: 0 n (%) | Treatment-related TEAE related to pamiparib only, patients [1, 7]: 0 n (%) | Serious AE related to both, patients ([1]; Part B): 0 n (%) | Serious AE related to itraconazole only, patients ([1]; Part B): 0 n (%) | Serious AE related to pamiparib only, patients ([1]; Part B): 0 n (%) | in vivo CYP2C8 inhibition ([2]; inferred from montelukast clinical study): negligible | specificity of inhibition for CYP3A rather than CYP2C8 [3]: ~ 100 fold

CO[C@H]1/C=C/O[C@@]2(C)Oc3c(C)c(O)c4c(O)c(c(/C=N/N5CCN(C)CC5)c(O)c4c3C2=O)NC(=O)/C(C)=C\C=C\[C@H](C)[C@H](O)[C@@H](C)[C@@H](O)[C@@H](C)[C@H](OC(C)=O)[C@@H]1C [Rifampin, rifampin, reference compound]
Any treatment-related TEAE, patients [4]: 1 (8.3) n (%) | Grade >= 3 TEAE, patients [4]: 0 n (%) | Serious AE, patients [4]: 0 n (%) | Treatment-related TEAE related to both, patients [4]: 0 n (%) | Treatment-related TEAE related to pamiparib only, patients [4]: 0 n (%) | Treatment-related TEAE related to rifampin only, patients [4]: 1 (8.3) n (%)

CC(C)(O)c1ccccc1CC[C@@H](SCC1(CC(=O)O)CC1)c1cccc(/C=C/c2ccc3ccc(Cl)cc3n2)c1 [montelukast]
effect of CYP2C8 inhibitor gemfibrozil on montelukast AUC [2]: markedly increased | effect of itraconazole coadministration on montelukast PK [2]: no significant effects

O=C(c1cc(Cc2n[nH]c(=O)c3ccccc23)ccc1F)N1CCN(C(=O)C2CC2)CC1 [olaparib]
P-glycoprotein substrate status [5]: substrate of P-glycoprotein | AUC treatment ratio with itraconazole [6, 8]: 2.70 | Cmax treatment ratio with itraconazole [6, 8]: 1.42 | AUC increase with itraconazole observed in one patient ([6]; olaparib with itraconazole, one patient): sevenfold

CNCc1ccc(-c2[nH]c3cc(F)cc4c3c2CCNC4=O)cc1 [rucaparib]
P-glycoprotein substrate status [5]: substrate of P-glycoprotein

Cn1ncnc1[C@H]1c2n[nH]c(=O)c3cc(F)cc(c23)N[C@@H]1c1ccc(F)cc1 [talazoparib]
P-glycoprotein substrate status [5]: substrate of P-glycoprotein

C[C@]1(c2nc3c(C(N)=O)cccc3[nH]2)CCCN1 [veliparib]
P-glycoprotein substrate status [5]: substrate of P-glycoprotein
